Patent US9833497B2, “Human originated EGF domain proteins and use of the same” (CHENGDU SOURCEBIO LIMITED-LIABILITY COMPANY, priority 2013, dated 2017)

How the values were obtained:
Assay type in all cases: cell-based
E. coli DH5α = test: Antibacterial activity: MIC and growth curve against E. coli DH5α in 96-well plate; settings: minimal inhibitory concentration against E. coli DH5α; 96-well plate, 5×10^5 CFU/mL, 37° C., judged after 8 h
How it was run: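 MIC taken as lowest protein level with no bacterial growth, tracked by A600 every 30 min during 37 °C, 175 rpm culture. Two-fold protein series 50-12.5 μg/mL final, triplicate wells, against 5×10^5 CFU/mL of LB-washed mid-log cells.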

E. coli BL21 = test: MIC against Gram-negative bacteria: E. coli BL21; settings: for MIC E. coli BL21 / MIC against E. coli BL21 / MIC (μg/mL) E. coli BL21: 5×10^5 CFU/mL
How it was run: (§1)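 The recombinant human-originated EGF domain proteins were serially diluted two-fold against bacteria at 5×10^5 CFU/mL in LB medium. After shaken incubation at 37° C, the lowest concentration with no bacterial growth was recorded as the MIC.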

Pseudomonas aeruginosa = test: MIC against Gram-negative bacteria: Pseudomonas aeruginosa; settings: for MIC P. aeruginosa / MIC against P. aeruginosa / MIC (μg/mL) P. aeruginosa: 5×10^5 CFU/mL
How it was run: as §1

Klebsiella pneumonia = test: MIC against Gram-negative bacteria: Klebsiella pneumonia; settings: for MIC K. pneumonia / MIC against K. pneumonia / MIC (μg/mL) K. pneumonia: 5×10^5 CFU/mL
How it was run: as §1

Enterobacter cloacae = test: MIC against Gram-negative bacteria: Enterobacter cloacae; settings: for MIC E. cloacae / MIC against E. cloacae / MIC (μg/mL) E. cloacae: 5×10^5 CFU/mL
How it was run: as §1

Aeromonas hydrophila = test: MIC against Gram-negative bacteria: Aeromonas hydrophila; settings: for MIC A. hydrophila / MIC against A. hydrophila / MIC (μg/mL) A. hydrophila: 5×10^5 CFU/mL
How it was run: as §1

Citrobacter diversus = test: MIC against Gram-negative bacteria: Citrobacter diversus; settings: for MIC C. diversus / MIC against C. diversus / MIC (μg/mL) C. diversus: 5×10^5 CFU/mL
How it was run: as §1

Moraxella catarrhalis = test: MIC against Gram-negative bacteria: Moraxella catarrhalis; settings: for MIC M. catarrhalis / MIC against M. catarrhalis / MIC (μg/mL) M. catarrhalis: 5×10^5 CFU/mL
How it was run: as §1

Proteus mirabilis = test: MIC against Gram-negative bacteria: Proteus mirabilis; settings: for MIC P. mirabilis / MIC against P. mirabilis / MIC (μg/mL) P. mirabilis: 5×10^5 CFU/mL
How it was run: as §1

Proteus vulgaris = test: MIC against Gram-negative bacteria: Proteus vulgaris; settings: for MIC P. vulgaris / MIC against P. vulgaris / MIC (μg/mL) P. vulgaris: 5×10^5 CFU/mL
How it was run: as §1

Serratia marcescens = test: MIC against Gram-negative bacteria: Serratia marcescens; settings: for MIC S. marcescens / MIC against S. marcescens / MIC (μg/mL) S. marcescens: 5×10^5 CFU/mL
How it was run: as §1

[1] = 10 h cultivation at 37° C., two-fold serial dilution
[2] = E. coli BL21, 96-well plate, 37° C., 10 h
[3] = Pseudomonas aeruginosa, 96-well plate, 37° C., 10 h
[4] = Klebsiella pneumonia, 96-well plate, 37° C., 10 h
[5] = Enterobacter cloacae, 96-well plate, 37° C., 10 h
[6] = Aeromonas hydrophila, 96-well plate, 37° C., 10 h
[7] = Citrobacter diversus, 96-well plate, 37° C., 10 h
[8] = Moraxella catarrhalis, 96-well plate, 37° C., 10 h
[9] = Proteus mirabilis, 96-well plate, 37° C., 10 h
[10] = Proteus vulgaris, 96-well plate, 37° C., 10 h
[11] = Serratia marcescens, 96-well plate, 37° C., 10 h

## PRT1187 (NTNDCNPLPCYNGGICVDGVNWFRCECAPGFAGPDCR; listed as Homo sapiens)
E. coli DH5α
  MIC: 50 µg/mL
E. coli BL21; [1]
  MIC E. coli BL21: 25 µg/mL
Pseudomonas aeruginosa; [1]
  MIC P. aeruginosa: 12.5 µg/mL
Klebsiella pneumonia; [1]
  MIC K. pneumonia: 25 µg/mL
Enterobacter cloacae; [1]
  MIC E. cloacae: 25 µg/mL
Aeromonas hydrophila; [1]
  MIC A. hydrophila: 12.5 µg/mL
Citrobacter diversus; [1]
  MIC C. diversus: 12.5 µg/mL
Moraxella catarrhalis; [1]
  MIC M. catarrhalis: 12.5 µg/mL
Proteus mirabilis; [1]
  MIC P. mirabilis: 25 µg/mL
Proteus vulgaris; [1]
  MIC P. vulgaris: 12.5 µg/mL
Serratia marcescens; [1]
  MIC S. marcescens: 12.5 µg/mL

## PRT512 (CACPLISSSNNFSPSCVAEGLDDYRCTACPRGYEGQYCERCAPGYTGSPGNPGGSCQE; listed as Homo sapiens)
E. coli DH5α
  MIC: 50 µg/mL
E. coli BL21; 96-well plate, 37° C., 10 h
  MIC against E. coli BL21: 25 µg/mL
Pseudomonas aeruginosa; 96-well plate, 37° C., 10 h
  MIC against P. aeruginosa: 12.5 µg/mL
Klebsiella pneumonia; 96-well plate, 37° C., 10 h
  MIC against K. pneumonia: 25 µg/mL
Enterobacter cloacae; 96-well plate, 37° C., 10 h
  MIC against E. cloacae: 50 µg/mL
Aeromonas hydrophila; 96-well plate, 37° C., 10 h
  MIC against A. hydrophila: 25 µg/mL
Citrobacter diversus; 96-well plate, 37° C., 10 h
  MIC against C. diversus: 12.5 µg/mL
Moraxella catarrhalis; 96-well plate, 37° C., 10 h
  MIC against M. catarrhalis: 25 µg/mL
Proteus mirabilis; 96-well plate, 37° C., 10 h
  MIC against P. mirabilis: 50 µg/mL
Proteus vulgaris; 96-well plate, 37° C., 10 h
  MIC against P. vulgaris: 25 µg/mL
Serratia marcescens; 96-well plate, 37° C., 10 h
  MIC against S. marcescens: 12.5 µg/mL

## PRT910 (EIDECLSHPCQNGGTCLDLPNTYKCSCPRGTQGVHCE; listed as Homo sapiens)
E. coli DH5α
  MIC: 50 µg/mL
E. coli BL21; E. coli BL21, 10 h cultivation at 37° C.
  MIC: 25 µg/mL
Pseudomonas aeruginosa; P. aeruginosa, 10 h cultivation at 37° C.
  MIC: 12.5 µg/mL
Klebsiella pneumonia; K. pneumonia, 10 h cultivation at 37° C.
  MIC: 25 µg/mL
Enterobacter cloacae; E. cloacae, 10 h cultivation at 37° C.
  MIC: 50 µg/mL
Aeromonas hydrophila; A. hydrophila, 10 h cultivation at 37° C.
  MIC: 12.5 µg/mL
Citrobacter diversus; C. diversus, 10 h cultivation at 37° C.
  MIC: 25 µg/mL
Moraxella catarrhalis; M. catarrhalis, 10 h cultivation at 37° C.
  MIC: 12.5 µg/mL
Proteus mirabilis; P. mirabilis, 10 h cultivation at 37° C.
  MIC: 25 µg/mL
Proteus vulgaris; P. vulgaris, 10 h cultivation at 37° C.
  MIC: 25 µg/mL
Serratia marcescens; S. marcescens, 10 h cultivation at 37° C.
  MIC: 25 µg/mL

## PRT143 (PRNPCRMSCQNHGRLNISTCHCHCPPGYTGRYCQ; listed as Homo sapiens)
E. coli DH5α
  MIC: 12.5 µg/mL
E. coli BL21; [2]
  MIC (μg/mL) E. coli BL21: 12.5 µg/mL
Pseudomonas aeruginosa; [3]
  MIC (μg/mL) P. aeruginosa: 12.5 µg/mL
Klebsiella pneumonia; [4]
  MIC (μg/mL) K. pneumonia: 12.5 µg/mL
Enterobacter cloacae; [5]
  MIC (μg/mL) E. cloacae: 12.5 µg/mL
Aeromonas hydrophila; [6]
  MIC (μg/mL) A. hydrophila: 12.5 µg/mL
Citrobacter diversus; [7]
  MIC (μg/mL) C. diversus: 12.5 µg/mL
Moraxella catarrhalis; [8]
  MIC (μg/mL) M. catarrhalis: 50 µg/mL
Proteus mirabilis; [9]
  MIC (μg/mL) P. mirabilis: 25 µg/mL
Proteus vulgaris; [10]
  MIC (μg/mL) P. vulgaris: 12.5 µg/mL
Serratia marcescens; [11]
  MIC (μg/mL) S. marcescens: 25 µg/mL

## PRT1233 (ISEPCPSYCSGHGDCISGVCFCDLGYTAAQGTCV; listed as Homo sapiens)
E. coli DH5α
  MIC: 25 µg/mL
E. coli BL21; [2]
  MIC against E. coli BL21: 12.5 µg/mL
Pseudomonas aeruginosa; [3]
  MIC against P. aeruginosa: 25 µg/mL
Klebsiella pneumonia; [4]
  MIC against K. pneumonia: 50 µg/mL
Enterobacter cloacae; [5]
  MIC against E. cloacae: 12.5 µg/mL
Aeromonas hydrophila; [6]
  MIC against A. hydrophila: 50 µg/mL
Citrobacter diversus; [7]
  MIC against C. diversus: 12.5 µg/mL
Moraxella catarrhalis; [8]
  MIC against M. catarrhalis: 50 µg/mL
Proteus mirabilis; [9]
  MIC against P. mirabilis: 25 µg/mL
Proteus vulgaris; [10]
  MIC against P. vulgaris: 12.5 µg/mL
Serratia marcescens; [11]
  MIC against S. marcescens: 25 µg/mL

## PRT670 (DVDECASRASCPTGLCLNTEGSFACSACENGYWVNEDGTACE; listed as Homo sapiens)
E. coli DH5α
  MIC: 25 µg/mL
E. coli BL21; 96-well plate, 37° C., 10 h
  MIC E. coli BL21: 12.5 µg/mL
Pseudomonas aeruginosa; 96-well plate, 37° C., 10 h
  MIC P. aeruginosa: 25 µg/mL
Klebsiella pneumonia; 96-well plate, 37° C., 10 h
  MIC K. pneumonia: 12.5 µg/mL
Enterobacter cloacae; 96-well plate, 37° C., 10 h
  MIC E. cloacae: 12.5 µg/mL
Aeromonas hydrophila; 96-well plate, 37° C., 10 h
  MIC A. hydrophila: 12.5 µg/mL
Citrobacter diversus; 96-well plate, 37° C., 10 h
  MIC C. diversus: 25 µg/mL
Moraxella catarrhalis; 96-well plate, 37° C., 10 h
  MIC M. catarrhalis: 12.5 µg/mL
Proteus mirabilis; 96-well plate, 37° C., 10 h
  MIC P. mirabilis: 25 µg/mL
Proteus vulgaris; 96-well plate, 37° C., 10 h
  MIC P. vulgaris: 12.5 µg/mL
Serratia marcescens; 96-well plate, 37° C., 10 h
  MIC S. marcescens: 25 µg/mL

## PRT83 (DDNVCLREPCENYMKCVSVLRFDSSAPFLASASTLFRPIQPIAGLRCRCPPGFTGDFCE; listed as Homo sapiens)
E. coli DH5α
  MIC: 12.5 µg/mL
E. coli BL21; [2]
  MIC (μg/mL) E. coli BL21: 12.5 µg/mL
Pseudomonas aeruginosa; [3]
  MIC (μg/mL) P. aeruginosa: 25 µg/mL
Klebsiella pneumonia; [4]
  MIC (μg/mL) K. pneumonia: 12.5 µg/mL
Enterobacter cloacae; [5]
  MIC (μg/mL) E. cloacae: 25 µg/mL
Aeromonas hydrophila; [6]
  MIC (μg/mL) A. hydrophila: 12.5 µg/mL
Citrobacter diversus; [7]
  MIC (μg/mL) C. diversus: 25 µg/mL
Moraxella catarrhalis; [8]
  MIC (μg/mL) M. catarrhalis: 12.5 µg/mL
Proteus mirabilis; [9]
  MIC (μg/mL) P. mirabilis: 12.5 µg/mL
Proteus vulgaris; [10]
  MIC (μg/mL) P. vulgaris: 12.5 µg/mL
Serratia marcescens; [11]
  MIC (μg/mL) S. marcescens: 12.5 µg/mL
